Source: patent US20240415789A1, “CYCLOBENZAPRINE FOR TREATMENT OR PREVENTION OF SEXUAL DYSFUNCTION ASSOCIATED WITH MENTAL HEALTH CONDITIONS IN FEMALE PATIENTS” (Tonix Pharmaceuticals Holding Corp., priority 2021, published 2024)
Structures can show the parent of a compound that is named as a salt. Where two headings read alike, the source gives them in different places.

Experiments:
[1] = system: female sexual functioning in females with military-related PTSD; conditions: military Phase 3, females 5.6 mg (N=8) vs placebo (N=16), 12 weeks
Procedure: (§1) Methods: In this 12-week, multicenter, adaptive design, randomized controlled fixed-dose trial, 5.6 mg cyclobenzaprine HCl (2×2.8 mg sublingual tablets, comprising a 75%±2% cyclobenzaprine HCl and 25%±2% mannitol eutectic and a potassium phosphate dibasic anhydrous basifying agent) taken daily at bedtime was compared to placebo for the treatment of PTSD at 45 U.S. sites. […] A pre-planned interim analysis was conducted when about half the originally planned sample of 550 participants had outcome data.
(§2) The modified intention-to-treat (mITT) population, which included all randomized subjects with at least one post-baseline CAPS-5, included 125 participants treated with 5.6 mg dose per day the above cyclobenzaprine HCl sublingual formulation and 127 participants on placebo were studied.
Sexual functioning was measured by Changes in Sexual Functioning Questionnaire short-form (CSFQ-14) which is a validated 14-item measure (Keller, McGarvey, Clayton, 2006). Parallel gender-specific versions are administered to males (CSFQ-14-M) and females (CSFQ-14-F), and each sex was analyzed separately. In addition to a total sexual functioning score, there are five sub-scales: desire/frequency, desire/interest, arousal/excitement, orgasm/complete, and pleasure. The scales range from (never) to (every day) and higher scores reflect greater levels of sexual functioning.
(§3) In the Phase 3 study in predominantly civilian PTSD, the inclusion criteria were broadened to include civilian participants with current PTSD, as determined by the CAPS-5. Accordingly, this study included 94% civilian trauma with a minimum baseline severity score of ≥33 on the CAPS-5. […] Thus, analyses were conducted on the interim analysis sample of 252 participants in the military Phase 3 study (89% male [n=225 M; n=27 F]; 100% military PTSD) and […] subjects in the civilian Phase 3 study (79% female [n=129 F; n=34 M]; 94% civilian PTSD).
(§4) The CSFQ-14 is a validated 14-item measure (Keller, McGarvey, Clayton, 2006) that has male and female versions which were analyzed separately. In addition to a total sexual functioning score, there are five sub-scales: desire/frequency, desire/interest, arousal/excitement, orgasm/complete, and pleasure. The items range on 5-point Likert scale from (never) to (every day). Higher scores reflect greater levels of sexual functioning.

military-related PTSD = conditions: female subgroup (10 active, 17 placebo), 5.6 mg per day sublingual, after 12 weeks of treatment
Procedure: as §1, §2

[2] = Procedure: as §1, §2
[3] = Phase 2 study in military-related PTSD, drug and placebo groups
Procedure: (§5) Three randomized, placebo-controlled and double-blind clinical trials of the above described 5.6 mg cyclobenzaprine HCl sublingual formulation (2×2.8 mg tablets) were performed, a Phase 2 study and a Phase 3 study in military-related PTSD, and a Phase 3 study in predominantly civilian PTSD. […] The present retrospective analysis examined the activity of the cyclobenzaprine HCl sublingual formulation on the Changes in Sexual Functioning Questionnaire short form (CSFQ-14) in the two Phase 3 studies.

PTSD = conditions: all three trials (Phase 2, two Phase 3), 5.6 mg dose
Procedure: as §5

[4] = system: female sexual functioning in females with predominantly civilian PTSD; conditions: civilian Phase 3, female completers 5.6 mg (N=58) vs placebo (N=55), 12 weeks
Procedure: as §5, §3, §4

[5] = both Phase 3 studies
Procedure: as §5, §3

severity of oral hypoaesthesia ([2]; military Phase 3): never rated as severe
duration of oral hypoaesthesia post administration ([2]; military Phase 3, generally transient): < 60 min
severity of oral hypoaesthesia [5]: never rated as severe
duration of oral hypoaesthesia post administration ([5]; generally transient): < 60 min
SMILES: CN(C)CCC=C1c2ccccc2C=Cc2ccccc21 [cyclobenzaprine HCl]
CSFQ-14-F arousal/excitement subscale, Hedges' g vs placebo [1]: 0.55
CSFQ-14-F desire/frequency subscale, Hedges' g vs placebo [1]: 0.46
CSFQ-14-F desire/interest subscale, Hedges' g vs placebo [1]: 0.63
CSFQ-14-F orgasm/completion scale, effect vs placebo [1]: No effect
CSFQ-14-F pleasure subscale, Hedges' g vs placebo [1]: 0.54
CSFQ-14-F total score, Hedges' g effect size vs placebo [1]: 0.49
observed mean improvement in CAPS-5 over placebo (military-related PTSD): −9.1 units
participants with at least one AE leading to study discontinuation ([2]; military Phase 3, 5.6 mg dose (placebo: two)): 8 participants
most frequent adverse event ([2]; military Phase 3, 5.6 mg sublingual daily at bedtime): oral hypoaesthesia
most common systemic adverse event ([2]; military Phase 3, also never rated as severe): somnolence
rates of adverse events related to sexual function [3]: very low rates
activity on clinician- and patient-rated global PTSD symptoms (CGI and PGIC) (PTSD): encouraging activity
CSFQ-14-F arousal/excitement subscale, Hedges' g vs placebo [4]: 0.33
CSFQ-14-F desire/frequency subscale, Hedges' g vs placebo [4]: 0.21
CSFQ-14-F desire/interest subscale, Hedges' g vs placebo [4]: 0.23
CSFQ-14-F orgasm/completion subscale, Hedges' g vs placebo [4]: 0.29
CSFQ-14-F pleasure subscale, Hedges' g vs placebo [4]: 0.19
CSFQ-14-F total score, Hedges' g effect size vs placebo ([4]; p=0.07): 0.37
most frequent adverse event ([5]; 5.6 mg sublingual): oral hypoaesthesia
most common systemic adverse event ([5]; also never rated as severe): somnolence
